# Experimental data from patent US10202388B2, “Fused-ring compounds, pharmaceutical composition and uses thereof” (SHANGHAI DE NOVO PHARMATECH CO., LTD., priority 2015, dated 2019).
# Target: HeLa cell based IDO1 (Homo sapiens (Human), UniProt P14902)
# Assay: Three-point IDO1 cellular assay (HeLa, 10, 100 and 1000 nM)
# Settings: HeLa cells, 100 ng/mL IFN-γ, 18 hours
# Description: To perform the 3-point HeLa cell based IDO1 assay, HeLa cells were seeded at 25,000 cells per well into 96-well microplate in 100 μL of growth medium. Cells were incubated at 37° C. and 5% CO2 overnight. The next day 100 μL per well of diluted inhibitor in growth medium at 10, 100 and 1000 nM, respectively, was added at a final concentration of 100 ng/ML human IFN-γ. Cells were incubated at 37° C. in a CO2 incubator for 18 hours. […] The plate was incubated at 50° C. for 30 min to hydrolyze N-formylkynurenine produced by IDO1 to kynurenine. The plate was then centrifuged at 2500 rpm for 10 min to remove sediments. 100 μl of supernatant per well was transferred to another 96-well plate and mixed with 100 μL of 2% (w/v) 4-(Dimethylamino) benzaldehyde in acetic acid. The plate was incubated at room temperature for 10 minutes, the yellow color derived from kynurenine was recorded by measuring absorbance at 480 nm using a microplate reader (TECAN Infinite M1000 Pro). Cell based assays were performed in triplicate at each concentration. The absorbance data were analyzed using the computer software, Graphpad Prism. In the absence of the compound and presence of 100 ng/ML IFN-γ, the absorbance (At) in each data set was defined as 100%. The absorbance of medium blank (Ab) in each data set was defined as 0%. The percent absorbance in the presence of each compound was calculated according to the following equation: % Absorbance=(A−Ab)/(At−Ab), where A=the absorbance in the presence of the compound and IFN-γ, Ab=the absorbance of medium blank, and At=the absorbance in the absence of the compounds and presence of IFN-γ. The values of % absorbance versus the compound concentrations were then determined.
# HeLa cell based IDO1, sequence (P14902 whole entry): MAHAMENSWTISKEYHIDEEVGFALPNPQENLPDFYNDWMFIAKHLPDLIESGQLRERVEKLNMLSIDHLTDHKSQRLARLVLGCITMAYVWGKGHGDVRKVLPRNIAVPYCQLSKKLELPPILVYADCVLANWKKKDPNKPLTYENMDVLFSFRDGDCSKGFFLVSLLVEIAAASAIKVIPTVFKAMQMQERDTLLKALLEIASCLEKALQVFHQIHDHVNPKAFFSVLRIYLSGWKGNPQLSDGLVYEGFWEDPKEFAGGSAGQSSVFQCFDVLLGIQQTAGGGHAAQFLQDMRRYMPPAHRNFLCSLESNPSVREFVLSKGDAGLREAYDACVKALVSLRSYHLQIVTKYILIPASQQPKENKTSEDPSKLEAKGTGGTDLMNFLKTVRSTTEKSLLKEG
SMILES,inhibition at 0.1 µM (at 100 nM) [%],inhibition at 1 µM (at 1000 nM) [%],further results
O=C(Cc1ccncc1)NC1C2CC3CC1CC(C(O)CC1c4ccccc4-c4cncn41)(C3)C2 (centres unmarked) [Compound 50A],–,> 50,–
O=C(CO)NC1C2CC3CC1CC(C(O)CC1c4ccccc4-c4cncn41)(C3)C2 (centres unmarked) [Compound 51A],–,> 50,–
O=C(NC1CCOCC1)NC1C2CC3CC1CC(C(O)CC1c4c(F)cccc4-c4cncn41)(C3)C2 (centres unmarked) [Compound 54],–,–,inhibition values of % (at 1000 nM): greater than 50%
O=C1C2CC3CC1CC(C(O)CC1c4c(F)cccc4-c4cncn41)(C3)C2 (centres unmarked) [Compound 63],–,–,inhibition values of % (at 1000 nM): greater than 50%
O=S(=O)(CC1CCCCC1)NC1C2CC3CC1CC(C(O)CC1c4c(F)cccc4-c4cncn41)(C3)C2 (centres unmarked) [Compound 65],–,–,inhibition at 0.01 µM (at 10 nM): > 50%
O=S(=O)(CC1CCC1)NC1C2CC3CC1CC(C(O)CC1c4c(F)cccc4-c4cncn41)(C3)C2 (centres unmarked) [Compound 67A],–,> 50,–
Cc1ccc(CS(=O)(=O)NC2C3CC4CC2CC(C(O)CC2c5c(F)cccc5-c5cncn52)(C4)C3)cc1 (centres unmarked) [Compound 70A],–,–,inhibition at 0.01 µM (at 10 nM): > 50%
O=S(=O)(Cc1ccccc1)NC1C2CC3CC1CC(C(O)CC1c4ccccc4-c4cncn41)(C3)C2 (centres unmarked) [Compound 75A],–,–,inhibition at 0.01 µM (at 10 nM): > 50%
N#CC1C2CC3CC1CC(C(O)CC1c4c(F)cccc4-c4cncn41)(C3)C2 (centres unmarked) [Compound 76],–,–,inhibition values of % (at 1000 nM): greater than 50%
ON=C1C2CC3CC1CC(C(O)CC1c4c(F)cccc4-c4cncn41)(C3)C2 (centres unmarked) [Compound 80],–,–,inhibition values of % (at 1000 nM): greater than 50%
O=S(=O)(CC1CCCC1)NC1C2CC3CC1CC(C(O)CC1c4c(F)cccc4-c4cncn41)(C3)C2 (centres unmarked) [Compound 82A],–,–,inhibition at 0.01 µM (at 10 nM): > 50%
O=S(=O)(CC1CCOCC1)NC1C2CC3CC1CC(C(O)CC1c4c(F)cccc4-c4cncn41)(C3)C2 (centres unmarked) [Compound 84A],–,–,inhibition values of % (at 100 nM): greater than 50%
O=S(=O)(NC1C2CC3CC1CC(C(O)CC1c4c(F)cccc4-c4cncn41)(C3)C2)C1CCCC1 (centres unmarked) [Compound 85A],–,–,inhibition values of % (at 10 nM): greater than 50%
CN(C1C2CC3CC1CC(C(O)CC1c4c(F)cccc4-c4cncn41)(C3)C2)S(=O)(=O)Cc1ccccc1 (centres unmarked) [Compound 89],–,–,inhibition values of % (at 100 nM): greater than 50%
O=C(NC1CCCCC1)NC1C2CC3CC1CC(C(O)CC1c4c(F)cccc4-c4cncn41)(C3)C2 (centres unmarked) [Compound 96A],> 50,–,–
CNC(=O)NC1C2CC3CC1CC(C(O)CC1c4c(F)cccc4-c4cncn41)(C3)C2 (centres unmarked) [Compound 98A],–,–,inhibition values of % (at 1000 nM): greater than 50%
CC(=O)c1ccc(NC(=O)NC2C3CC4CC2CC(C(O)CC2c5ccccc5-c5cncn52)(C4)C3)cc1 (centres unmarked) [Compound 104],–,> 50,–
O=C(Nc1ccc(F)cc1F)NC1C2CC3CC1CC(C(O)CC1c4c(F)cccc4-c4cncn41)(C3)C2 (centres unmarked) [Compound 105A],> 50,–,–
O=C(NCC1CCC1)NC1C2CC3CC1CC(C(O)CC1c4c(F)cccc4-c4cncn41)(C3)C2 (centres unmarked) [Compound 111A],> 50,–,–
O=C(NCC1CCOC1)NC1C2CC3CC1CC(C(O)CC1c4c(F)cccc4-c4cncn41)(C3)C2 (centres unmarked) [Compound 112A],–,> 50,–
Cn1cc(NC(=O)NC2C3CC4CC2CC(C(O)CC2c5c(F)cccc5-c5cncn52)(C4)C3)cn1 (centres unmarked) [Compound 114A],–,> 50,–

SMILES,inhibition at 0.1 µM (at 100 nM) [%],inhibition at 1 µM (at 1000 nM) [%],further results
O=C1N(c2ccc(F)cc2)CCN1C1C2CC3CC1CC(C(O)CC1c4c(F)cccc4-c4cncn41)(C3)C2 (centres unmarked) [Compound 122],–,–,inhibition values of % (at 100 nM): greater than 50%
OC(CC1c2c(F)cccc2-c2cncn21)C12CC3CC(C1)C(Nc1nc4ccccc4s1)C(C3)C2 (centres unmarked) [Compound 126],–,–,inhibition at 0.01 µM (at 10 nM): > 50%
OC(CC1c2c(F)cccc2-c2cncn21)C12CC3CC(C1)C(Nc1nc4cccnc4o1)C(C3)C2 (centres unmarked) [Compound 127],–,–,inhibition values of % (at 100 nM): greater than 50%
OC(COC1C2CC3CC1CC(C(O)CC1c4c(F)cccc4-c4cncn41)(C3)C2)c1ccccc1 (centres unmarked) [Compound 136],–,–,inhibition values of % (at 100 nM): greater than 50%
OCCC1(O)C2CC3CC1CC(C(O)CC1c4c(F)cccc4-c4cncn41)(C3)C2 (centres unmarked) [Compound 142],–,–,inhibition values of % (at 1000 nM): greater than 50%
N#Cc1ccc(C2(O)C3CC4CC2CC(C(O)CC2c5c(F)cccc5-c5cncn52)(C4)C3)cc1 (centres unmarked) [Compound 145],–,> 50,–
OC(CC1c2c(F)cccc2-c2cncn21)C12CC3CC(C1)C(O)(c1cccnc1)C(C3)C2 (centres unmarked) [Compound 146],–,> 50,–
O=S(=O)(Nc1ccccc1)NC1C2CC3CC1CC(C(O)CC1c4ccccc4-c4cncn41)(C3)C2 (centres unmarked) [Compound 151],–,–,inhibition values of % (at 100 nM): greater than 50%
O=S(=O)(Nc1ccc(F)cc1)NC1C2CC3CC1CC(C(O)CC1c4ccccc4-c4cncn41)(C3)C2 (centres unmarked) [Compound 152],–,> 50,–
Cc1ccc(NS(=O)(=O)NC2C3CC4CC2CC(C(O)CC2c5ccccc5-c5cncn52)(C4)C3)cc1 (centres unmarked) [Compound 153],> 50,–,–
O=C(Nc1ccc(F)cc1)NC12CC3CC(C1)C(C(O)CC1c4ccccc4-c4cncn41)C(C3)C2 (centres unmarked) [Compound 163A],> 50,–,–
O=C(Nc1ccc(F)cc1)NC12CC3CC(C1)C(C(O)CC1c4ccccc4-c4cncn41)C(C3)C2 (centres unmarked) [Compound 163B],–,> 50,–
Cc1ccc(NC(=O)NC23CC4CC(C2)C(C(O)CC2c5ccccc5-c5cncn52)C(C4)C3)cc1 (centres unmarked) [Compound 164A],> 50,–,–
Cc1ccc(NC(=O)NC23CC4CC(C2)C(C(O)CC2c5ccccc5-c5cncn52)C(C4)C3)cc1 (centres unmarked) [Compound 164B],–,> 50,–
O=S(=O)(NC12CC3CC(C1)C(C(O)CC1c4ccccc4-c4cncn41)C(C3)C2)c1ccc(C(F)(F)F)cc1 (centres unmarked) [Compound 166B],> 50,–,–
O=S(=O)(NC12CC3CC(C1)C(C(O)CC1c4ccccc4-c4cncn41)C(C3)C2)C1CC1 (centres unmarked) [Compound 169A],> 50,–,–
O=S(=O)(NC12CC3CC(C1)C(C(O)CC1c4ccccc4-c4cncn41)C(C3)C2)C1CC1 (centres unmarked) [Compound 169B],–,> 50,–
O=S(=O)(CC1CCCCC1)NC12CC3CC(C1)C(C(O)CC1c4ccccc4-c4cncn41)C(C3)C2 (centres unmarked) [Compound 170A-A],–,> 50,–
N#Cc1ccc(NC(=O)NC23CC4CC(C2)C(C(O)CC2c5c(F)cccc5-c5cncn52)C(C4)C3)cc1 (centres unmarked) [Compound 191A],–,> 50,–
O=C(CC1CCCCC1)NC12CC3CC(C1)C(C(O)CC1c4c(F)cccc4-c4cncn41)C(C3)C2 (centres unmarked) [Compound 192A],> 50,–,–

# Now from value to compound, other results behind:
inhibition at 0.1 µM (at 100 nM) [%],inhibition at 1 µM (at 1000 nM) [%],SMILES,further results
> 50,–,CS(=O)(=O)NC1C2CC3CC1CC(C(O)CC1c4c(F)cccc4-c4cncn41)(C3)C2 (centres unmarked) [Compound 46A],–
–,> 50,NS(=O)(=O)NC1C2CC3CC1CC(C(O)CC1c4c(F)cccc4-c4cncn41)(C3)C2 (centres unmarked) [Compound 48A],–
> 50,–,O=C(Cc1ccccc1)NC1C2CC3CC1CC(C(O)CC1c4ccccc4-c4cncn41)(C3)C2 (centres unmarked) [Compound 53B],–
–,> 50,O=C(Nc1cccnc1)NC1C2CC3CC1CC(C(O)CC1c4c(F)cccc4-c4cncn41)(C3)C2 (centres unmarked) [Compound 56A],–
> 50,–,O=S(=O)(CCc1ccccc1)NC1C2CC3CC1CC(C(O)CC1c4c(F)cccc4-c4cncn41)(C3)C2 (centres unmarked) [Compound 64],–
> 50,–,O=S(=O)(CC1CC1)NC1C2CC3CC1CC(C(O)CC1c4c(F)cccc4-c4cncn41)(C3)C2 (centres unmarked) [Compound 68],–
–,> 50,O=S(=O)(Cc1ccccc1)NC1C2CC3CC1CC(C(O)CC1c4ccccc4-c4cncn41)(C3)C2 (centres unmarked) [Compound 75B],–
> 50,–,O=C(Nc1ccc(F)cc1)NC1C2CC3CC1CC(C(O)CC1c4c(F)cccc4-c4cncn41)(C3)C2 (centres unmarked) [Compound 93B],–
> 50,–,O=C(Nc1ccc(Cl)cc1)NC1C2CC3CC1CC(C(O)CC1c4c(F)cccc4-c4cncn41)(C3)C2 (centres unmarked) [Compound 94A],–
> 50,–,O=C(Nc1ccc(Br)cc1)NC1C2CC3CC1CC(C(O)CC1c4c(F)cccc4-c4cncn41)(C3)C2 (centres unmarked) [Compound 95A],–
–,> 50,O=C(NC1CC1)NC1C2CC3CC1CC(C(O)CC1c4c(F)cccc4-c4cncn41)(C3)C2 (centres unmarked) [Compound 106A],–
> 50,–,O=C(NCC1CC1)NC1C2CC3CC1CC(C(O)CC1c4c(F)cccc4-c4cncn41)(C3)C2 (centres unmarked) [Compound 107A],–
–,> 50,O=C(Nc1cccc2ccccc12)NC1C2CC3CC1CC(C(O)CC1c4c(F)cccc4-c4cncn41)(C3)C2 (centres unmarked) [Compound 109A],–
> 50,–,O=C(Nc1ccc2ccccc2c1)NC1C2CC3CC1CC(C(O)CC1c4c(F)cccc4-c4cncn41)(C3)C2 (centres unmarked) [Compound 110A],–
–,> 50,OC(CC1c2c(F)cccc2-c2cncn21)C12CC3CC(C1)C(OCc1ccccc1)C(C3)C2 (centres unmarked) [Compound 133],–
> 50,–,OC(CC1c2c(F)cccc2-c2cncn21)C12CC3CC(C1)C(OCCN1CCOCC1)C(C3)C2 (centres unmarked) [Compound 135A],–
–,> 50,OC(CC1c2c(F)cccc2-c2cncn21)C12CC3CC(C1)C(OCCN1CCOCC1)C(C3)C2 (centres unmarked) [Compound 135B],–
–,> 50,OC(COC1C2CC3CC1CC(C(O)CC1c4c(F)cccc4-c4cncn41)(C3)C2)C1CCCCC1 (centres unmarked) [Compound 137],–
